Patent US5420335A, “Parenteral nutrients based on watersoluble glycerol bisacetoacetates” (priority 1993, dated 1995)
Values joined by “and” are separate entries in the source; they are usually repeats but may differ in a detail not shown here. Identical values can stand only once. “Also recorded” adds a separate entry of the source.

Key:
Format in all cases: in vivo, rat (male Sprague-Dawley)
[1] = Daily body weight of intravenously infused rats
Procedure: Water was available ad libitum at all times.
The vein was then ligated dorsally to the catheter. […] Body weights were measured daily.
(§1) Infusate volume, oral food intake, body weight and urinary volume and total nitrogen were monitored daily for each rat. Infusate volume and food intake were determined by weighing the appropriate container at the start and end of each 24 hr. period. Measurements were recorded between 9 and 10 AM each day. At the end of the 7th day, rats were sacrificed, and blood and liver were harvested. Plasma was separated for measurement of free fatty acids, glucose, and ketone bodies. Liver was weighed and a sample was fixed in buffered formalin for gross histology.
(§2) The data were analyzed for significance by the one-way analysis of variance with repeated measures and comparing the effect of dietary treatment on each day. […] The null hypothesis was concluded invalid if p≤0.05. The analysis of variance was computed on a SAS statistical package.
This compound has an estimated energy density of 4.86 kcal/gram based on thermodynamic data from similar compounds.

[2] = Liver weight after 7 days of infusion; conditions: for Liver/100 GM: as percentage of body weight
Procedure: as §1
The data were analyzed for significance by the one-way analysis of variance with repeated measures and comparing the effect of dietary treatment on each day. […] The null hypothesis was concluded invalid if p≤0.05. The analysis of variance was computed on a SAS statistical package. […]

[3] = Plasma free fatty acids, glucose and ketone bodies after 7 days of infusion; conditions: for T.KB: total ketone bodies
Procedure: as §1, §2

[4] = Oral dietary nitrogen (food) intake of intravenously infused rats
[5] = Table 5, Example 2, plasma, end of day 7, average of 7 rats
[6] = Table 5, Example 2, plasma, end of day 7, individual rat
[7] = Table 11, Example 4, plasma, average
[8] = Table 11, Example 4, plasma, individual rat

OC[C@H]1OC(O)[C@H](O)[C@@H](O)[C@@H]1O (stereo partly drawn) [Glucose, glucose, reference compound]
Daily Body Weight ([1]; Table 4, Example 2, day 6, average of 7 rats): 255 Grams | Daily Body Weight ([1]; Table 4, Example 2, day 6, individual rat): 257 Grams and 230 Grams and 274 Grams and 220 Grams and 238 Grams and 293 Grams | Daily Body Weight ([1]; Table 4, Example 2, day 7, average of 7 rats): 249 Grams | Daily Body Weight ([1]; Table 4, Example 2, day 7, individual rat): 245 Grams and 228 Grams and 251 Grams and 226 Grams and 230 Grams and 268 Grams and 297 Grams | Daily Body Weight ([1]; Table 10, Example 4, day 0, average of 9 rats): 252 Grams | Daily Body Weight ([1]; Table 10, Example 4, day 0, individual rat): 254 Grams and 288 Grams and 263 Grams and 251 Grams and 227 Grams and 260 Grams and 249 Grams and 233 Grams and 247 Grams | Daily Body Weight ([1]; Table 10, Example 4, day 1, average of 9 rats): 249 Grams | Daily Body Weight ([1]; Table 10, Example 4, day 1, individual rat): 247 Grams and 292 Grams and 256 Grams and 225 Grams and 259 Grams and 241 Grams and 227 Grams and 244 Grams | Daily Body Weight ([1]; Table 10, Example 4, day 2, average of 9 rats): 252 Grams | Daily Body Weight ([1]; Table 10, Example 4, day 2, individual rat): 261 Grams and 290 Grams and 267 Grams and 246 Grams and 224 Grams and 259 Grams and 237 Grams and 235 Grams and 245 Grams | Daily Body Weight ([1]; Table 10, Example 4, day 3, average of 9 rats): 251 Grams | Daily Body Weight ([1]; Table 10, Example 4, day 3, individual rat): 260 Grams and 292 Grams and 269 Grams and 240 Grams and 227 Grams and 264 Grams and 244 Grams and 234 Grams and 229 Grams | Daily Body Weight ([1]; Table 10, Example 4, day 4, average of 9 rats): 258 Grams | Daily Body Weight ([1]; Table 10, Example 4, day 4, individual rat): 263 Grams and 297 Grams and 273 Grams and 239 Grams and 234 Grams and 282 Grams and 248 Grams and 245 Grams | Daily Body Weight ([1]; Table 10, Example 4, day 5, average of 9 rats): 257 Grams | Daily Body Weight ([1]; Table 10, Example 4, day 5, individual rat): 268 Grams and 298 Grams and 270 Grams and 237 Grams and 239 Grams and 250 Grams and 241 Grams | Daily Body Weight ([1]; Table 10, Example 4, day 6, average of 9 rats): 263 Grams | Daily Body Weight ([1]; Table 10, Example 4, day 6, individual rat): 263 Grams and 302 Grams and 267 Grams and 241 Grams and 259 Grams and 268 Grams and 254 Grams and 245 Grams and 271 Grams | Daily Body Weight ([1]; Table 10, Example 4, day 7, average of 9 rats): 259 Grams | Daily Body Weight ([1]; Table 10, Example 4, day 7, individual rat): 264 Grams and 305 Grams and 272 Grams and 237 Grams and 247 Grams and 261 Grams and 249 Grams and 244 Grams and 255 Grams | Liver/100 GM ([2]; Table 5, Example 2, average of 7 rats): 3.220 | Liver/100 GM ([2]; Table 5, Example 2, individual rat): 2.600 and 3.333 and 3.255 and 4.208 and 3.057 and 3.004 and 3.081 | Liver Wt. ([2]; Table 5, Example 2, end of day 7, average of 7 rats): 7.983 Grams | Liver Wt. ([2]; Table 5, Example 2, end of day 7, individual rat): 6.37 Grams and 7.6 Grams and 8.17 Grams and 9.51 Grams and 7.03 Grams and 8.05 Grams and 9.15 Grams | Liver/100 GM ([2]; Table 11, Example 4, average): 3.636 | Liver/100 GM ([2]; Table 11, Example 4, individual rat): 3.116 and 3.748 and 3.4975 and 3.789 and 4.01 and 4.617 and 3.403 and 3.377 and 3.169 | Liver Wt. ([2]; Table 11, Example 4, end of day 7, average): 9.433 | Liver Wt. ([2]; Table 11, Example 4, end of day 7, individual rat): 8.2264 and 11.4311 and 9.5132 and 8.9798 and 9.9056 and 12.0506 and 8.4742 and 8.2387 and 8.0815 | liver weight and percentage liver weight ([2]; in words, end of day 7): similarity between glucose infused and experimental compound infused rats liver | ACAC [3, 5]: 0.088 mmol/L | BOHB [3, 5]: 0.505 mmol/L | FFa [3, 5]: 0.564 mmol/L | Glucose [3, 5]: 185.423 mg/dL | ACAC [3, 6]: 0.020 mmol/L and 0.066 mmol/L and 0.194 mmol/L and 0.096 mmol/L and 0.017 mmol/L and 0.031 mmol/L | BOHB [3, 6]: 0.385 mmol/L and 0.476 mmol/L and 0.533 mmol/L and 0.332 mmol/L and 0.358 mmol/L and 1.086 mmol/L and 0.363 mmol/L | FFa [3, 6]: 0.337 mmol/L and 0.976 mmol/L and 0.850 mmol/L and 0.816 mmol/L and 0.168 mmol/L and 0.483 mmol/L and 0.316 mmol/L | Glucose [3, 6]: 196.840 mg/dL and 161.300 mg/dL and 162.620 mg/dL and 164.800 mg/dL and 237.100 mg/dL and 228.500 mg/dL | T.KB [3, 5]: 0.593 mmol/L | T.KB [3, 6]: 0.405 mmol/L and 0.542 mmol/L and 0.727 mmol/L and 0.427 mmol/L and 0.375 mmol/L and 1.280 mmol/L and 0.394 mmol/L | ACAC [3, 7]: 0.029 mmol/L | BOHB [3, 7]: 0.512 mmol/L | Glucose [3, 7]: 214.433 mg/dL | Total FFA [3, 7]: 0.341 mmol/L | ACAC [3, 8]: 0.0085 mmol/L and 0.1195 mmol/L and 0.0177 mmol/L and 0.0095 mmol/L and 0.0038 mmol/L and 0.0145 mmol/L | BOHB [3, 8]: 0.5282 mmol/L and 0.5088 mmol/L and 0.5936 mmol/L and 0.2075 mmol/L and 0.6958 mmol/L and 0.6475 mmol/L and 0.3727 mmol/L and 0.4066 mmol/L and 0.651 mmol/L | Glucose [3, 8]: 263.3 mg/dL and 203.5 mg/dL and 429.3 mg/dL and 208 mg/dL and 284.8 mg/dL and 163.5 mg/dL and 124.9 mg/dL and 116.6 mg/dL | Total FFA [3, 8]: 0.327 mmol/L and 0.231 mmol/L and 0.462 mmol/L and 0.434 mmol/L and 0.525 mmol/L and 0.303 mmol/L and 0.206 mmol/L and 0.395 mmol/L and 0.19 mmol/L | blood / plasma glucose ([3]; in words, end of day 7): significantly elevatea plasma glucose; also recorded: higher for glucose infused rats than for the other two groups | free fatty acid concentration ([3]; in words, plasma, end of day 7): not different for the three groups | Dietary Nitrogen Intake ([4]; Table 1, Example 2, day 1, average of 7 rats): 203 MG N | Dietary Nitrogen Intake ([4]; Table 1, Example 2, day 2, average of 7 rats): 302 MG N | Dietary Nitrogen Intake ([4]; Table 1, Example 2, day 3, average of 7 rats): 291 MG N | Dietary Nitrogen Intake ([4]; Table 1, Example 2, day 4, average of 7 rats): 322 MG N | Dietary Nitrogen Intake ([4]; Table 1, Example 2, day 5, average of 7 rats): 290 MG N | Dietary Nitrogen Intake ([4]; Table 1, Example 2, day 7, average of 7 rats): 354 MG N | Dietary Nitrogen Intake ([4]; Table 7, Example 4, oral only, day 1, average of 9 rats): 279 MG N | Dietary Nitrogen Intake ([4]; Table 7, Example 4, oral only, day 1, individual rat): 500.08 MG N and 388.22 MG N and 164.5 MG N and 151.34 MG N and 78.96 MG N and 421.12 MG N and 329 MG N and 98.7 MG N and 375.06 MG N | Dietary Nitrogen Intake ([4]; Table 7, Example 4, oral only, day 2, average of 9 rats): 369 MG N | Dietary Nitrogen Intake ([4]; Table 7, Example 4, oral only, day 2, individual rat): 519.82 MG N and 513.24 MG N and 500.08 MG N and 98.7 MG N and 269.78 MG N and 434.28 MG N and 342.16 MG N and 243.46 MG N and 401.38 MG N | Dietary Nitrogen Intake ([4]; Table 7, Example 4, oral only, day 3, average of 9 rats): 323 MG N | Dietary Nitrogen Intake ([4]; Table 7, Example 4, oral only, day 3, individual rat): 355.32 MG N and 388.22 MG N and 394.8 MG N and 151.34 MG N and 467.18 MG N and 407.96 MG N and 197.4 MG N | Dietary Nitrogen Intake ([4]; Table 7, Example 4, oral only, day 4, average of 9 rats): 372 MG N | Dietary Nitrogen Intake ([4]; Table 7, Example 4, oral only, day 4, individual rat): 506.66 MG N and 401.38 MG N and 342.16 MG N and 427.7 MG N and 85.54 MG N and 282.94 MG N and 480.34 MG N and 486.92 MG N and 335.58 MG N | Dietary Nitrogen Intake ([4]; Table 7, Example 4, oral only, day 5, average of 9 rats): 379 MG N | Dietary Nitrogen Intake ([4]; Table 7, Example 4, oral only, day 5, individual rat): 493.5 MG N and 421.12 MG N and 368.48 MG N and 335.58 MG N and 0 MG N and 427.7 MG N and 454.02 MG N | Dietary Nitrogen Intake ([4]; Table 7, Example 4, oral only, day 6, average of 9 rats): 382 MG N | Dietary Nitrogen Intake ([4]; Table 7, Example 4, oral only, day 6, individual rat): 500.08 MG N and 454.02 MG N and 375.06 MG N and 329 MG N and 0 MG N and 394.8 MG N and 421.12 MG N and 447.44 MG N and 519.82 MG N | Dietary Nitrogen Intake ([4]; Table 7, Example 4, oral only, day 7, average of 9 rats): 381 MG N | Dietary Nitrogen Intake ([4]; Table 7, Example 4, oral only, day 7, individual rat): 421.12 MG N and 414.54 MG N and 355.32 MG N and 32.9 MG N and 401.38 MG N and 473.76 MG N and 407.96 MG N and 500.08 MG N
